Test results reported in publication PMC10058949, “Effect of N-Terminal Peptide Modifications on In Vitro and In Vivo Properties of ^177Lu-Labeled Peptide Analogs Targeting CCK2R” (Pharmaceutics, 2023).
Read-outs that look alike come from different tables or passages of the source.

How the values were obtained:
[1] = Biodistribution 4 h p.i. in A431-CCK2R/A431-mock xenografted BALB/c nude mice; format: in vivo; conditions: female, BALB/c nude, mouse, iv, 20 pmol, total radioactivity, 4 h p.i., 20 pmol; for tissue uptake at 4 h: ~0.5 MBq, n=5
Protocol: (§1) Then, after 7–11 days, when visible tumor xenografts were formed, groups of 5 mice were injected intravenously via a lateral tail vein with ~0.5 MBq of radiolabeled peptide, corresponding to 20 pmol of peptide, in a total volume of ~150 µL in PBS/0.5% BSA. Using an additional mouse per group, a blocking study was performed by co-injecting a 1000-fold molar excess of the respective peptide analog (20 nmol) together with the radiolabeled peptide. For quantification, a 1:1, 1:10 and 1:50 standard was prepared using aliquots of the injection solution mixed with PBS/0.5% BSA. Mice were euthanized by cervical dislocation 4 h after injection. Subsequently, a blood sample was collected, and different tissues were dissected. All samples, as well as the rest of the body were weighed, and the activity measured in the γ-counter together with the standard. Results were expressed as percentage of injected activity per gram of tissue (%IA/g).

[2] = system: A431-CCK2R/A431-mock xenografted BALB/c nude mice; assay: as above; format: in vivo; conditions: 4 h p.i., ~0.5 MBq, 20 pmol, n=5
Protocol: as §1

[3] = Protein binding in human serum by Sephadex G-50 size-exclusion chromatography; format: in vitro ADME; conditions: human serum; time point not given
Protocol: (§2) The stability studies with the ^177Lu-labeled peptide analogs were carried out at a concentration of 0.5 nmol peptide/mL in fresh human serum (n = 2) for up to 24 h. A mixture of 0.05 nmol/mL of the radiolabeled peptides in PBS and octanol (1/1, v/v) was used to evaluate the octanol/PBS distribution coefficient (logD7.4; n = 8). To determine the protein binding in human serum by Sephadex G-50 size-exclusion chromatography (GE Healthcare Illustra, Little Chalfont, UK), a 25 µL serum sample was used for different time points after incubation. All steps were performed according to previously published protocols.

[4] = Octanol/PBS distribution coefficient (logD7.4); format: physicochemical; conditions: octanol/PBS 1/1, pH 7.4; read-out: logD (octanol/PBS)
Protocol: as §2

[5] = BALB/c mice, cited from earlier work
[6] = Biodistribution blocking experiment with 1000-fold excess of non-radiolabeled peptide; format: in vivo, mice; conditions: female, BALB/c nude, mouse, iv, total radioactivity, 4 h p.i., 1000-fold excess of non-radiolabeled peptide, n=1
Protocol: as §1

[7] = system: A431-CCK2R/A431-mock xenografted BALB/c nude mice; assay: as above; format: in vivo; conditions: 4 h p.i., 1000-fold excess of non-radiolabeled peptide, n=1
Protocol: as §1

[8] = Stability of 177Lu-labeled peptides in fresh human serum; format: in vitro ADME; conditions: 37 °C, 24 h incubation
Protocol: as §2

**Q.** What does the source list for CCCC[C@@H](C(=O)N[C@@H](CC(=O)O)C(=O)N[C@@H](Cc1cccc2ccccc12)C(N)=O)N(C)C(=O)[C@H](Cc1c[nH]c2ccccc12)NC(=O)CNC(=O)[C@H](Cc1ccc(O)cc1)NC(=O)[C@H](C)NC(=O)[C@@H](CCC(=O)O)NC(=O)CN1CCN(CC(=O)O)CCN(CC(=O)O)CCN(CC(=O)O)CC1 [[^177Lu]Lu-DOTA-MGS5, metal not drawn, reference compound]?
**A.** tissue uptake at 4 h ([1]; A431-CCK2R tumor xenograft, read-out: uptake in A431-CCK2R xenografts): 22.8 ± 4.67 %ID/g; tissue uptake at 4 h ([1]; A431-mock tumor xenograft, read-out: uptake in A431-mock xenografts): 0.19 ± 0.03 %ID/g; tissue uptake at 4 h ([1]; blood, read-out: uptake in blood): 0.11 ± 0.11 %ID/g; tissue uptake at 4 h ([1]; femur, read-out: uptake in femur): 0.36 ± 0.35 %ID/g; tissue uptake at 4 h ([1]; heart, read-out: uptake in heart): 0.1 ± 0.06 %ID/g; tissue uptake at 4 h ([1]; intestine, read-out: uptake in intestine): 1.02 ± 0.23 %ID/g; tissue uptake at 4 h ([1]; kidneys, read-out: uptake in kidneys): 3.45 ± 0.91 %ID/g; tissue uptake at 4 h ([1]; liver, read-out: uptake in liver): 1.02 ± 0.8 %ID/g; tissue uptake at 4 h ([1]; lung, read-out: uptake in lung): 0.17 ± 0.14 %ID/g; tissue uptake at 4 h ([1]; muscle, read-out: uptake in muscle): 0.1 ± 0.02 %ID/g; tissue uptake at 4 h ([1]; pancreas, read-out: uptake in pancreas): 1.91 ± 0.91 %ID/g; tissue uptake at 4 h ([1]; spleen, read-out: uptake in spleen): 0.27 ± 0.18 %ID/g; tissue uptake at 4 h ([1]; stomach, read-out: uptake in stomach): 6.26 ± 4.28 %ID/g; tissue to tissue ratio at 4 h ([1]; tumor / kidney, read-out: tumor-to-kidney ratio): 7; uptake in liver [2]: 1.02 ± 0.23 % IA/g; fraction unbound [3]: 0.667; logD [4]: -2.25 ± 0.13; intact radiopeptide in blood ([5]; 10 min after intravenous injection): 86%; intact radiopeptide in blood ([5]; 30 min p.i.): 77%; intact radiopeptide in blood ([5]; 1 h after intravenous injection): 70%; tissue uptake at 4 h ([6]; A431-CCK2R tumor xenograft, read-out: uptake in A431-CCK2R xenograft, blocking): 0.54 %ID/g; tissue uptake at 4 h ([6]; A431-mock tumor xenograft, read-out: uptake in A431-mock xenograft, blocking): 0.34 %ID/g; tissue uptake at 4 h ([6]; blood, read-out: uptake in blood, blocking): 0.09 %ID/g; tissue uptake at 4 h ([6]; femur, read-out: uptake in femur, blocking): 0.04 %ID/g; tissue uptake at 4 h ([6]; heart, read-out: uptake in heart, blocking): 0.08 %ID/g; tissue uptake at 4 h ([6]; lung, read-out: uptake in lung, blocking): 0.08 %ID/g; tissue uptake at 4 h ([6]; pancreas, read-out: uptake in pancreas, blocking): 0.11 %ID/g; tissue uptake at 4 h ([6]; stomach, read-out: uptake in stomach, blocking): 0.09 %ID/g; uptake in intestine, blocking [7]: 0.79 % IA/g; uptake in kidneys, blocking [7]: 2.95 % IA/g; uptake in liver, blocking [7]: 0.54 % IA/g; uptake in muscle, blocking [7]: 0.03 % IA/g; uptake in spleen, blocking [7]: 0.16 % IA/g; intact radiopeptide in human serum [8]: 96.9 ± 0.3%
